For one compound, KD and Kd results are on record in article PMC6642015 (Cell chemical biology, 2019).

Substitutions are numbered along the chain they refer to.

Common to all, as to test: isothermal titration calorimetry
What all share (format): binding
(Isothermal titration calorimetry measures the heat released or taken up as one component is titrated into another.)

The target of experiment [1] is T1, human CblA (MMAA) (Homo sapiens, UniProt Q8IVH4, K276E).
T1 sequence (Q8IVH4 66-418 K276E limits assumed): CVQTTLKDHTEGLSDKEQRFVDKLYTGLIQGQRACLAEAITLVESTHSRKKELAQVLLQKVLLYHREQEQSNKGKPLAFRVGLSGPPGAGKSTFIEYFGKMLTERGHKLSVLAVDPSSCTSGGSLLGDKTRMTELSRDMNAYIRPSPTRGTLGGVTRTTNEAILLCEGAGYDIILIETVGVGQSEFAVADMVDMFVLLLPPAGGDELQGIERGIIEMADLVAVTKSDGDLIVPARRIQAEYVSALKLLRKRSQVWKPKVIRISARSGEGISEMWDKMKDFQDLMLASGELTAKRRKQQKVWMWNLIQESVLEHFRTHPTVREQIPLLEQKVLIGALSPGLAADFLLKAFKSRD
The conditions noted are these: pH 7.5, 150 mM KCl, 2 mM MgCl2, 20 °C; one-site model.

The target of experiment [2] is T2, human CblA (MMAA) (Homo sapiens, UniProt Q8IVH4, K276A).
T2 sequence (Q8IVH4 66-418 K276A limits assumed): T1 sequence (Q8IVH4 66-418 K276E limits assumed) with E211A
The conditions noted are these: pH 7.5, 150 mM KCl, 2 mM MgCl2, 20 °C; one-site model.

Experiment [3] addresses T3, human CblA (MMAA) (Homo sapiens, UniProt Q8IVH4).
T3 sequence (Q8IVH4 66-418 limits assumed): T1 sequence (Q8IVH4 66-418 K276E limits assumed) with E211K

Experiment [4] has as its target T4, human CblA (MMAA) (Homo sapiens, UniProt Q8IVH4, Q273A).
T4 sequence (Q8IVH4 66-418 Q273A limits assumed): T1 sequence (Q8IVH4 66-418 K276E limits assumed) with Q208A, E211K
Conditions: pH 7.5, 150 mM KCl, 2 mM MgCl2, 20 °C; one-site model.

The target of experiment [5] is T5, human CblA (MMAA) (Homo sapiens, UniProt Q8IVH4, G278D).
T5 sequence (Q8IVH4 66-418 G278D limits assumed): T1 sequence (Q8IVH4 66-418 K276E limits assumed) with E211K, G213D
Conditions: pH 7.5, 150 mM KCl, 2 mM MgCl2, 20 °C; one-site model.

The target in experiment [6] is T6, human CblA (MMAA) (Homo sapiens, UniProt Q8IVH4, G274S).
T6 sequence (Q8IVH4 66-418 G274S limits assumed): T1 sequence (Q8IVH4 66-418 K276E limits assumed) with G209S, E211K
The conditions noted are these: pH 7.5, 150 mM KCl, 2 mM MgCl2, 20 °C; one-site model.

For `Nc1nc2c(ncn2[C@@H]2O[C@H](COP(=O)(O)OP(=O)(O)O)[C@@H](O)[C@H]2O)c(=O)[nH]1` [GDP], the KD result in experiment [1], in experiment [2], in experiment [4], in experiment [5] and in experiment [6] was “largely unaffected by switch III mutations (Table S1)” each time. For the same compound, in experiment [3], the dissociation constant Kd (commonly the constant that tells how readily two partners part at equilibrium) amounted to 1100 ± 300 nM.
